Results reported in US7728155B2, “Dihydrobenzofuranyl alkanamines and methods for using same as cns agents” (Wyeth LLC, priority 2003, dated 2010).
Counter-ions that a name gives are not always drawn. Like-named read-outs stand apart in the source and are kept apart here.

Key:
[1] = biological target: T1, human 5-hydroxytryptamine-2C (h5-HT2C) receptor (Homo sapiens, UniProt P28335); experiment: [125I]DOI binding affinity at h5-HT2C receptor, CHO cell membranes; settings: for Ki: [125I]DOI displacement, CHO membranes expressing h5-HT2C
T1 construct: expressed in transfected cells; host or cells: CHO (Chinese Hamster Ovary) cells; membranes
T1 sequence (P28335 33-458): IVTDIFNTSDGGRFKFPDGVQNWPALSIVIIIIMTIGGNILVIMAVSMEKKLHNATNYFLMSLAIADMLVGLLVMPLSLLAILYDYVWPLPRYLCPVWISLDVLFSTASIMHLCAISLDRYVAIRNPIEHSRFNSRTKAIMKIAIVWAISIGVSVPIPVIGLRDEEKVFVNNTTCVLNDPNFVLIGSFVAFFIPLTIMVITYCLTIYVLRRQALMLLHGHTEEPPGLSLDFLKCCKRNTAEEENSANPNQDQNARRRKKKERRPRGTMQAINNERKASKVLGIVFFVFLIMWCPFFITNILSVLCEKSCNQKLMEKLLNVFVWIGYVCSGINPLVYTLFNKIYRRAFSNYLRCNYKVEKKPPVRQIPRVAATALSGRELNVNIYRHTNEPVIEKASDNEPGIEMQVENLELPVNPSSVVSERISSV

[2] = biological target: T2, human 5-HT2C receptor (Homo sapiens, UniProt P28335); experiment: 5-HT2C receptor-stimulated calcium mobilization (FLIPR) in CHO cells; assay type: cell-based; settings: for Emax: CHO, read-out: 5-HT2C Function Emax (%); for EC50: calcium mobilization, CHO cells expressing human 5-HT2C, read-out: 5-HT2C Function EC50
T2 sequence (P28335 33-458): T1 sequence (P28335 33-458)

[3] = percentage of the response to a maximally effective concentration of 5-HT

| Compound | Ki ([1]; read-out: 5-HT2C Affinity Ki) [nM] | Emax [2, 3] [%] | EC50 [2] [nM] | 5-HT2C Function Emax (%) [2, 3] [%] | further results |
| --- | --- | --- | --- | --- | --- |
| NCC1Cc2ccc3c(c2O1)CCC3 (racemic) (as salt: hydrochloride) [Example 1, (±)-1-(3,6,7,8-tetrahydro-2H-indeno[4,5-b]furan-2-yl)methanamine] | – | – | – | – | melting point: > 230 °C (dec.) |
| NCC1Cc2ccc3c(c2O1)CCC3 (racemic) [Example 1, (±)-1-(3,6,7,8-tetrahydro-2H-indeno[4,5-b]furan-2-yl)methanamine] | 10 | 90 | 31 | – | – |
| NCC1Cc2ccc3c(c2O1)CCCC3 (racemic) [Example 4, (±)-1-(2,3,6,7,8,9-hexahydronaphtho[1,2-b]furan-2-yl)methanamine] | 8 | 80 | 76 | – | – |
| Cc1cc2c(c3c1CCC3)OC(CN)C2 (racemic) [Example 7, (±)-1-(5-methyl-3,6,7,8-tetrahydro-2H-indeno[4,5-b]furan-2-yl)methanamine] | 6 | 95 | 19 | – | – |
| NCC1Cc2ccc3ccccc3c2O1 (racemic) [Example 10, (±)-1-(2,3-dihydronaphtho[1,2-b]furan-2-yl)methanamine] | 29 | 90 | 20 | – | – |
| NCC1Cc2cc3c(cc2O1)CCCC3 (racemic) [Example 13, (±)-1-(2,3,5,6,7,8-hexahydronaphtho[2,3-b]furan-2-yl)methanamine] | 99 | – | – | – | – |
| NCC1Cc2c(ccc3c2CCCC3)O1 (racemic) [Example 14, (±)-1-(1,2,6,7,8,9-hexahydronaphtho[2,1-b]furan-2-yl)methanamine] | 19 | 100 | 34 | – | – |
| COc1cc2c(c3c1C1CCC3CC1)OC(CN)C2 (racemic) [Example 19, (±)-1-(5-methoxy-2,3,6,7,8,9-hexahydro-6,9-ethanonaphtho[1,2-b]furan-2-yl)methanamine] | 7 | 100 | 25 | – | – |
| NCC1Cc2cc(Cl)c3ccccc3c2O1 (racemic) [Example 23, (±)-1-(5-chloro-2,3-dihydronaphtho[1,2-b]furan-2-yl)methanamine] | 5 | 90 | 28 | – | – |
| CNCC1Cc2cc(Cl)c3ccccc3c2O1 (racemic) [Example 24, (±)-1-(5-chloro-2,3-dihydronaphtho[1,2-b]furan-2-yl)-N-methylmethanamine] | 7 | 60 | 91 | – | – |
| NCC1Cc2c(Cl)cc3c(c2O1)CCC3 (racemic) [Example 25, (±)-1-(4-chloro-3,6,7,8-tetrahydro-2H-indeno[4,5-b]furan-2-yl)methanamine] | 12 | 80 | 4.4 | – | – |
| NCC1Cc2cc(Cl)c3c(c2O1)CCC3 (racemic) [Example 29, (±)-1-(5-chloro-3,6,7,8-tetrahydro-2H-indeno[4,5-b]furan-2-yl)methanamine] | 4 | 100 | 5.8 | – | – |
| COc1cc2c(c3c1C1CCC3C1)OC(CN)C2 (single isomer, unassigned) [Example 16, (9-methoxy-4-oxatetracyclo[9.2.1.0^2,10.0^3,7]tetradeca-2,7,9-trien-5-yl)methylamine] | 85 | – | – | – | – |
| COc1cc2c(c3c1C1CCC3C1)OC(CN)C2 (single isomer, unassigned) [Example 17, (9-methoxy-4-oxatetracyclo[9.2.1.0^2,10.0^3,7]tetradeca-2,7,9-trien-5-yl)methylamine] | 8 | 100 | 10 | – | – |
| COc1cc2c(c3c1C1CCC3C1)OC(CN)C2 (single isomer, unassigned) [Example 18, (9-methoxy-4-oxatetracyclo[9.2.1.0^2,10.0^3,7]tetradeca-2,7,9-trien-5-yl)methylamine] | 82 | – | – | – | – |
| C[C@@H](N)[C@H]1Cc2ccc3c(c2O1)CCC3 (single isomer, unassigned) [Example 22, (2R*)-1-[(2R*)-3,6,7,8-tetrahydro-2H-indeno[4,5-b]furan-2-yl]ethylamine] | – | – | 15 | – | Ki ([1]; 5-HT2C Affinity Ki (nM)): 13 nM; Emax [2]: 80% |
| NCC1Cc2ccc3c(c2O1)CCC3 (single isomer, unassigned; (+)) [Example 2, (+)-1-(3,6,7,8-tetrahydro-2H-indeno[4,5-b]furan-2-yl)methanamine] | 28 | – | 8 | 75 | – |

| Compound | Ki ([1]; read-out: 5-HT2C Affinity Ki) [nM] | Emax [2, 3] [%] | EC50 [2] [nM] | 5-HT2C Function Emax (%) [2, 3] [%] | further results |
| --- | --- | --- | --- | --- | --- |
| NCC1Cc2ccc3c(c2O1)CCCC3 (single isomer, unassigned; (+)) [Example 5, (+)-1-(2,3,6,7,8,9-hexahydronaphtho[1,2-b]furan-2-yl)methanamine] | 17 | – | 38 | 70 | – |
| Cc1cc2c(c3c1CCC3)OC(CN)C2 (single isomer, unassigned; (+)) [Example 8, (+)-1-(5-methyl-3,6,7,8-tetrahydro-2H-indeno[4,5-b]furan-2-yl)methanamine] | 6 | 100 | 8.3 | – | – |
| NCC1Cc2ccc3ccccc3c2O1 (single isomer, unassigned; (+)) [Example 11, (+)-1-(2,3-dihydronaphtho[1,2-b]furan-2-yl)methanamine] | 15 | – | 5.7 | 65 | – |
| COc1cc2c(c3c1C1CCC3CC1)OC(CN)C2 (single isomer, unassigned; (+)) [Example 20, (+)-1-(5-methoxy-2,3,6,7,8,9-hexahydro-6,9-ethanonaphtho[1,2-b]furan-2-yl)methanamine] | 22 | – | 91 | 60 | – |
| NCC1Cc2c(Cl)cc3c(c2O1)CCC3 (single isomer, unassigned; (+)) [Example 27, (+)-1-(4-chloro-3,6,7,8-tetrahydro-2H-indeno[4,5-b]furan-2-yl)methanamine] | 4 | – | 56 | 60 | – |
| NCC1Cc2cc(Cl)c3c(c2O1)CCC3 (single isomer, unassigned; (+)) [Example 31, (+)-1-(5-chloro-3,6,7,8-tetrahydro-2H-indeno[4,5-b]furan-2-yl)methanamine] | 1 | – | 10 | 40 | – |
| NCC1Cc2ccc3c(c2O1)CCC3 (single isomer, unassigned; (-)) [Example 3, (−)-1-(3,6,7,8-tetrahydro-2H-indeno[4,5-b]furan-2-yl)methanamine] | 5 | – | 0.9 | 100 | – |
| NCC1Cc2ccc3c(c2O1)CCCC3 (single isomer, unassigned; (-)) [Example 6, (−)-1-(2,3,6,7,8,9-hexahydronaphtho[1,2-b]furan-2-yl)methanamine] | 11 | – | 3 | 100 | – |
| Cc1cc2c(c3c1CCC3)OC(CN)C2 (single isomer, unassigned; (-)) [Example 9, (−)-1-(5-methyl-3,6,7,8-tetrahydro-2H-indeno[4,5-b]furan-2-yl)methanamine] | 11 | – | 11 | 100 | – |
| NCC1Cc2ccc3ccccc3c2O1 (single isomer, unassigned; (-)) [Example 12, (−)-1-(2,3-dihydronaphtho[1,2-b]furan-2-yl)methanamine] | 16 | – | 2 | 90 | – |
| COc1cc2c(c3c1C1CCC3CC1)OC(CN)C2 (single isomer, unassigned; (-)) [Example 21, (−)-1-(5-methoxy-2,3,6,7,8,9-hexahydro-6,9-ethanonaphtho[1,2-b]furan-2-yl)methanamine] | 4 | – | 0.8 | 90 | – |
| NCC1Cc2c(Cl)cc3c(c2O1)CCC3 (single isomer, unassigned; (-)) [Example 26, (−)-1-(4-chloro-3,6,7,8-tetrahydro-2H-indeno[4,5-b]furan-2-yl)methanamine] | 16 | 80 | 88 | – | – |
| NCC1Cc2cc(Cl)c3c(c2O1)CCC3 (single isomer, unassigned; (-)) [Example 30, (−)-1-(5-chloro-3,6,7,8-tetrahydro-2H-indeno[4,5-b]furan-2-yl)methanamine] | 6 | – | 234 | 80 | – |
| COc1cc2c(c3c1C1CCC3C1)OC(CN)C2 (stereo not drawn) [Example 15, (9-methoxy-4-oxatetracyclo[9.2.1.0^2,10.0^3,7]tetradeca-2,7,9-trien-5-yl)methylamine] | 9 | 100 | 17 | – | – |
| CSc1ccc2c(c1)C(N1CCN(C)CC1)Cc1ccccc1S2 (stereo not drawn) [Methiothepin, reference compound] | – | – | – | – | Ki ([1]; reference compounds, read-out: Ki (95% confidence interval)): 4.6 nM |
| COc1cc(CC(C)N)c(OC)cc1I (stereo not drawn) [[^125I] DOI, reference compound] | – | – | – | – | Kd ([1]; saturation binding with increasing concentrations of [125I]DOI, read-out: dissociation constant, KD): 0.4 nM |
